Results as given in PubChem BioAssay (NCI).
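Five compound concentrations were applied to cells in 96-well plates for 48 hours; endpoints were derived by simple linear interpolation of the resulting dose-response curve. TGI: concentration producing complete growth inhibition.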

What was measured:
Assay in all cases: NCI tumour cell line growth inhibition, 48 h
SNB-75 CNS = test system: SNB-75 CNS
DMS 114 small cell lung = test system: DMS 114 small cell lung
A549 NSCLC = test system: A549 NSCLC
U251 CNS = test system: U251 CNS
IGROV1 ovarian = test system: IGROV1 ovarian
SW-620 colon = test system: SW-620 colon
KM12 colon = test system: KM12 colon
K-562 leukemia = test system: K-562 leukemia
NCI-H460 lung = test system: NCI-H460 lung
EKVX NSCLC = test system: EKVX NSCLC
DLD-1 colon = test system: DLD-1 colon
MALME-3M melanoma = test system: MALME-3M melanoma
XF 498 CNS = test system: XF 498 CNS
RXF-631 renal = test system: RXF-631 renal
SK-MEL-28 melanoma = test system: SK-MEL-28 melanoma
SNB-19 CNS = test system: SNB-19 CNS
786-0 renal = test system: 786-0 renal
OVCAR-4 ovarian = test system: OVCAR-4 ovarian
HOP-62 NSCLC = test system: HOP-62 NSCLC
OVCAR-3 ovarian = test system: OVCAR-3 ovarian
HT29 colon = test system: HT29 colon
UACC-257 melanoma = test system: UACC-257 melanoma
HL-60(TB) leukemia = test system: HL-60(TB) leukemia
NCI-H23 lung = test system: NCI-H23 lung
OVCAR-5 ovarian = test system: OVCAR-5 ovarian
M19-MEL melanoma = test system: M19-MEL melanoma
UACC-62 melanoma = test system: UACC-62 melanoma
SF-268 CNS = test system: SF-268 CNS
SN12C renal = test system: SN12C renal
RPMI-8226 leukemia = test system: RPMI-8226 leukemia
HCT-15 colon = test system: HCT-15 colon
DMS 273 small cell lung = test system: DMS 273 small cell lung
NCI-H522 lung = test system: NCI-H522 lung
SK-MEL-5 melanoma = test system: SK-MEL-5 melanoma
LOX IMVI melanoma = test system: LOX IMVI melanoma
SF-295 CNS = test system: SF-295 CNS
RXF 393 renal = test system: RXF 393 renal
TK-10 renal = test system: TK-10 renal
A498 renal = test system: A498 renal
SK-OV-3 ovarian = test system: SK-OV-3 ovarian
NCI-H226 lung = test system: NCI-H226 lung
UO-31 renal = test system: UO-31 renal
SNB-78 CNS = test system: SNB-78 CNS
OVCAR-8 ovarian = test system: OVCAR-8 ovarian
CCRF-CEM leukemia = test system: CCRF-CEM leukemia
SF-539 CNS = test system: SF-539 CNS
HCC-2998 colon = test system: HCC-2998 colon
ACHN renal = test system: ACHN renal
KM20L2 colon = test system: KM20L2 colon
SK-MEL-2 melanoma = test system: SK-MEL-2 melanoma
MOLT-4 leukemia = test system: MOLT-4 leukemia
COLO 205 colon = test system: COLO 205 colon
M14 melanoma = test system: M14 melanoma
SR leukemia = test system: SR leukemia
HOP-92 NSCLC = test system: HOP-92 NSCLC
CAKI-1 renal = test system: CAKI-1 renal
LXFL 529 NSCLC = test system: LXFL 529 NSCLC
HCT-116 colon = test system: HCT-116 colon

O=C(c1ccc(Cl)cc1Cl)N(/N=C/C=C/c1ccccc1)c1nnc(-c2ccccc2)c(-c2ccccc2)n1
TGI (SNB-75 CNS): > 100 µM
TGI (DMS 114 small cell lung): > 100 µM
TGI (A549 NSCLC): > 100 µM
TGI (U251 CNS): > 100 µM
TGI (IGROV1 ovarian): > 100 µM
TGI (SW-620 colon): > 100 µM
TGI (KM12 colon): > 100 µM
TGI (K-562 leukemia): > 100 µM
TGI (NCI-H460 lung): > 100 µM
TGI (EKVX NSCLC): > 100 µM
TGI (DLD-1 colon): > 100 µM
TGI (MALME-3M melanoma): > 100 µM
TGI (XF 498 CNS): > 100 µM
TGI (RXF-631 renal): > 100 µM
TGI (SK-MEL-28 melanoma): > 100 µM
TGI (SNB-19 CNS): > 100 µM
TGI (786-0 renal): > 100 µM
TGI (OVCAR-4 ovarian): > 100 µM
TGI (HOP-62 NSCLC): > 100 µM
TGI (OVCAR-3 ovarian): > 100 µM
TGI (HT29 colon): > 100 µM
TGI (UACC-257 melanoma): > 100 µM
TGI (HL-60(TB) leukemia): > 100 µM
TGI (NCI-H23 lung): > 100 µM
TGI (OVCAR-5 ovarian): > 100 µM
TGI (M19-MEL melanoma): > 100 µM
TGI (UACC-62 melanoma): > 100 µM
TGI (SF-268 CNS): > 100 µM
TGI (SN12C renal): > 100 µM
TGI (RPMI-8226 leukemia): > 100 µM
TGI (HCT-15 colon): > 100 µM
TGI (DMS 273 small cell lung): > 100 µM
TGI (NCI-H522 lung): 82.5 µM
TGI (SK-MEL-5 melanoma): > 100 µM
TGI (LOX IMVI melanoma): > 100 µM
TGI (SF-295 CNS): > 100 µM
TGI (RXF 393 renal): > 100 µM
TGI (TK-10 renal): > 100 µM
TGI (A498 renal): > 100 µM
TGI (SK-OV-3 ovarian): > 100 µM
TGI (NCI-H226 lung): > 100 µM
TGI (UO-31 renal): > 100 µM
TGI (SNB-78 CNS): > 100 µM
TGI (OVCAR-8 ovarian): > 100 µM
TGI (CCRF-CEM leukemia): > 100 µM
TGI (SF-539 CNS): > 100 µM
TGI (HCC-2998 colon): > 100 µM
TGI (ACHN renal): > 100 µM
TGI (KM20L2 colon): > 100 µM
TGI (SK-MEL-2 melanoma): > 100 µM
TGI (MOLT-4 leukemia): > 100 µM
TGI (COLO 205 colon): > 100 µM

COc1ccc([C@@H]2C[C@@H]3C(=O)OC(=O)[C@@H]3c3c2c2ccccc2n3C)cc1
TGI (SNB-75 CNS): > 100 µM
TGI (DMS 114 small cell lung): > 100 µM
TGI (A549 NSCLC): > 100 µM
TGI (IGROV1 ovarian): > 100 µM
TGI (SW-620 colon): > 100 µM
TGI (KM12 colon): > 100 µM
TGI (K-562 leukemia): > 100 µM
TGI (EKVX NSCLC): > 100 µM
TGI (DLD-1 colon): > 100 µM
TGI (MALME-3M melanoma): > 100 µM
TGI (XF 498 CNS): > 100 µM
TGI (RXF-631 renal): > 100 µM
TGI (SK-MEL-28 melanoma): > 100 µM
TGI (SNB-19 CNS): > 100 µM
TGI (786-0 renal): > 100 µM
TGI (OVCAR-4 ovarian): > 100 µM
TGI (HOP-62 NSCLC): > 100 µM
TGI (OVCAR-3 ovarian): > 100 µM
TGI (HT29 colon): > 100 µM
TGI (UACC-257 melanoma): > 100 µM
TGI (HL-60(TB) leukemia): > 100 µM
TGI (NCI-H23 lung): > 100 µM
TGI (M19-MEL melanoma): > 100 µM
TGI (UACC-62 melanoma): > 100 µM
TGI (M14 melanoma): > 100 µM
TGI (SF-268 CNS): > 100 µM
TGI (SN12C renal): > 100 µM
TGI (SR leukemia): > 100 µM
TGI (RPMI-8226 leukemia): > 100 µM
TGI (DMS 273 small cell lung): > 100 µM
TGI (NCI-H522 lung): > 100 µM
TGI (HOP-92 NSCLC): > 100 µM
TGI (CAKI-1 renal): > 100 µM
TGI (SF-295 CNS): > 100 µM
TGI (TK-10 renal): > 100 µM
TGI (A498 renal): > 100 µM
TGI (LXFL 529 NSCLC): > 100 µM
TGI (SK-OV-3 ovarian): > 100 µM
TGI (NCI-H226 lung): > 100 µM
TGI (UO-31 renal): > 100 µM
TGI (OVCAR-8 ovarian): > 100 µM
TGI (HCT-116 colon): > 100 µM
TGI (CCRF-CEM leukemia): > 100 µM
TGI (SF-539 CNS): > 100 µM
TGI (HCC-2998 colon): > 100 µM
TGI (SK-MEL-2 melanoma): > 100 µM
TGI (MOLT-4 leukemia): > 100 µM
TGI (COLO 205 colon): > 100 µM

Cn1c2c([N+](=O)[O-])cccc2c(=O)c2c(O)cc3c(c21)C=CC(C)(C)O3
TGI (SNB-75 CNS): 84.5 µM
TGI (DMS 114 small cell lung): > 100 µM
TGI (A549 NSCLC): > 100 µM
TGI (U251 CNS): > 100 µM
TGI (IGROV1 ovarian): > 100 µM
TGI (SW-620 colon): > 100 µM
TGI (KM12 colon): > 100 µM
TGI (K-562 leukemia): > 100 µM
TGI (NCI-H460 lung): > 100 µM
TGI (EKVX NSCLC): > 100 µM
TGI (DLD-1 colon): > 100 µM
TGI (MALME-3M melanoma): > 100 µM
TGI (XF 498 CNS): 45.2 µM
TGI (RXF-631 renal): > 100 µM
TGI (SK-MEL-28 melanoma): > 100 µM
TGI (SNB-19 CNS): > 100 µM
TGI (786-0 renal): > 100 µM
TGI (OVCAR-4 ovarian): 81 µM
TGI (HT29 colon): > 100 µM
TGI (UACC-257 melanoma): > 100 µM
TGI (HL-60(TB) leukemia): > 100 µM
TGI (NCI-H23 lung): > 100 µM
TGI (OVCAR-5 ovarian): > 100 µM
TGI (UACC-62 melanoma): > 100 µM
TGI (M14 melanoma): > 100 µM
TGI (SF-268 CNS): > 100 µM
TGI (SN12C renal): > 100 µM
TGI (RPMI-8226 leukemia): > 100 µM
TGI (HCT-15 colon): > 100 µM
TGI (DMS 273 small cell lung): > 100 µM
TGI (NCI-H522 lung): 27.8 µM
TGI (SK-MEL-5 melanoma): > 100 µM
TGI (LOX IMVI melanoma): > 100 µM
TGI (CAKI-1 renal): > 100 µM
TGI (SF-295 CNS): 99.5 µM
TGI (RXF 393 renal): 62.1 µM
TGI (TK-10 renal): > 100 µM
TGI (A498 renal): > 100 µM
TGI (LXFL 529 NSCLC): > 100 µM
TGI (SK-OV-3 ovarian): > 100 µM
TGI (UO-31 renal): > 100 µM
TGI (SNB-78 CNS): > 100 µM
TGI (OVCAR-8 ovarian): > 100 µM
TGI (CCRF-CEM leukemia): > 100 µM
TGI (SF-539 CNS): 76.2 µM
TGI (HCC-2998 colon): > 100 µM
TGI (ACHN renal): > 100 µM
TGI (KM20L2 colon): > 100 µM
TGI (SK-MEL-2 melanoma): > 100 µM
TGI (MOLT-4 leukemia): > 100 µM
TGI (COLO 205 colon): > 100 µM

O=C1c2ccccc2C(=O)N1C/C=N/NS(=O)(=O)c1ccc(F)cc1
TGI (SNB-75 CNS): > 100 µM
TGI (DMS 114 small cell lung): > 100 µM
TGI (A549 NSCLC): > 100 µM
TGI (U251 CNS): > 100 µM
TGI (IGROV1 ovarian): > 100 µM
TGI (SW-620 colon): > 100 µM
TGI (KM12 colon): > 100 µM
TGI (K-562 leukemia): > 100 µM
TGI (EKVX NSCLC): > 100 µM
TGI (DLD-1 colon): > 100 µM
TGI (MALME-3M melanoma): > 100 µM
TGI (XF 498 CNS): > 100 µM
TGI (RXF-631 renal): > 100 µM
TGI (SNB-19 CNS): > 100 µM
TGI (786-0 renal): > 100 µM
TGI (OVCAR-4 ovarian): > 100 µM
TGI (UACC-257 melanoma): > 100 µM
TGI (HL-60(TB) leukemia): > 100 µM
TGI (NCI-H23 lung): > 100 µM
TGI (M19-MEL melanoma): > 100 µM
TGI (UACC-62 melanoma): > 100 µM
TGI (SF-268 CNS): > 100 µM
TGI (SN12C renal): > 100 µM
TGI (SR leukemia): > 100 µM
TGI (RPMI-8226 leukemia): > 100 µM
TGI (HCT-15 colon): > 100 µM
TGI (DMS 273 small cell lung): > 100 µM
TGI (NCI-H522 lung): > 100 µM
TGI (SK-MEL-5 melanoma): > 100 µM
TGI (LOX IMVI melanoma): > 100 µM
TGI (CAKI-1 renal): > 100 µM
TGI (SF-295 CNS): > 100 µM
TGI (TK-10 renal): > 100 µM
TGI (LXFL 529 NSCLC): > 100 µM
TGI (NCI-H226 lung): > 100 µM
TGI (UO-31 renal): > 100 µM
TGI (OVCAR-8 ovarian): > 100 µM
TGI (HCT-116 colon): > 100 µM
TGI (CCRF-CEM leukemia): > 100 µM
TGI (SF-539 CNS): > 100 µM
TGI (HCC-2998 colon): > 100 µM
TGI (ACHN renal): > 100 µM
TGI (KM20L2 colon): > 100 µM
TGI (SK-MEL-2 melanoma): > 100 µM
TGI (MOLT-4 leukemia): > 100 µM
TGI (COLO 205 colon): > 100 µM
